Test results published in patent US8183230B2, “Antimicrobial preservatives to achieve multi-dose formulation using beta-cyclodextrins for liquid dosage forms” (priority 2004, dated 2012).
Entries after “also recorded” stand apart in the source; their conditions may differ.

How the values were obtained:
[1] = system: Escherichia coli, Pseudomonas aeruginosa, Staphylococcus aureus, Candida albicans, Aspergillus niger; assay: Hybrid USP/Ph. Eur. antimicrobial effectiveness test (AET); assay type: cell-based
Method: Preparation of Preserved Formulations. […] Antimicrobial preservatives with optimal activity at a pH outside the nominal formulation value (pH 4.4) were titrated to either 3.5 or 5.0 using 1 N HCl or 1 N NaOH. A stock solution of either 10% or 5% (weight/volume) SBE-CD containing 10 mgA/mL of the compound of Formula Ia citrate was prepared. Preservative was added to the respective formulation on a weight basis.
Antimicrobial Efficacy Testing. A hybrid USP […]/Ph. Eur. 2000 antimicrobial effectiveness test (AET) was performed, as follows: 20 mL of drug product was individually inoculated with 0.1-0.2 mL of bacterial or fungal culture, per USP/Ph. Eur. compendial requirements. The final concentration of organisms in the test sample was between 1×10^5 and 1×10^6 cfu/mL. At initial 6 hr, 24 hr, 7 day, 14 day, and 28 day time intervals, 1 mL of the inoculated product was transferred into 9 mL of a recovery diluent, that was validated to confirm neutralization of the antimicrobial preservative. One mL of the diluted sample was then transferred to a sterile petri dish and combined with 15-20 mL of an agar broth to culture the organisms. Plates were then incubated for 3 to 5 days, upon which colonies were counted. Initial organism contamination was then calculated based on dilution of the initial sample.
Generally, the USP test requirements are less stringent than Ph. Eur. requirements, which typically have an immediate bacteriocidal activity requirement. The Ph. Eur. requirements shown in Table III have either a “Criteria A” or “Criteria B” specification depending on the rate of microorganism reduction, with criteria A requiring an increased bacteriocidal rate. In order to meet the combined hybrid assay, the initial inoculum count of microorganisms needed to be reduced by the amounts listed in Table V.

[2] = Study A; pH: 4.4, SBE-CD: 10%; compound of Formula Ia at 10 mgA/mL; content: ethanol 15%, meta-cresol 0.3%, propylene glycol 50%, thimerosal 0.01
Method: Injection site toleration was measured by inspecting the patient for signs of reaction, including erythema (size); skin thickening (size), pain on palpation and edema. Table VI provides a detailed explanation of the scoring system: a score of 0 (no reaction) to 4 (severe reaction) was given for each characteristic and each injection site daily.
Compound of Formula Ia formulations were evaluated for injection site toleration (hereinafter “IST”).
Formulations were tested in groups of 4 dogs comprised of beagles and mongrels. […] Dogs were observed daily for evidence of reaction at the injection site and a score of 0-4 (see Table VI) was given for each of the following parameters: pain on injection, erythema, tissue thickening, pain on palpation and edema. Dogs were observed daily until day 5 (24 hours after the last dose).

For Cc1cccc(O)c1 [meta-cresol], the reducing the microorganisms [1] was “effective”, the “AET Results Ph. Eur. Criteria A” value ([1]; Study A, pH: 4.4, SBE-CD: 10%, compound of Formula Ia at 10 mgA/mL, content: ethanol 15%, meta-cresol 0.3%, propylene glycol 50%, thimerosal 0.01, cells without ✓ print organism (time point)) was “s. aur (6, 24 hr); also recorded: c. alb (7 d)” and the “Ph. Eur. criteria B” value ([1]; leads of Study B) was “met criteria B”. The “Ph. Eur. criteria A for preservative efficacy” value ([1]; meta-cresol containing formulations) was “robustly meeting Ph. Eur. criteria A”, the activity against bacteria ([1]; when SBE-CD was present in the formulation) was “greatly diminished” and the IST [2] was “Good”.
